In patent US20170008845A1, “PYRIDINYL CYCLOHEXANECARBOXAMIDE COOLING COMPOUNDS” (Givaudan, S.A., priority 2005, published 2017):
Where two headings read alike, the source gives them in different places.

Tests used:
[1] = tested on: panelists (cooling sensation in the mouth); conditions: cooling intensity similar to or slightly higher than menthol at 2 ppm
[2] = tested on: panelists (cooling sensation in the mouth); experiment: Panel tasting of aqueous solutions: cooling intensity matched to menthol 2 ppm, and longevity; type: in vivo; conditions: for Longevity (time until no cooling could be sensed in the mouth): aqueous solution at the chosen concentration of Table 2; for Concentration with cooling intensity similar or slightly higher than menthol at 2 ppm: aqueous solution, tasted by a small panel
Excerpt: The same panel is asked to taste these solutions at the chosen concentrations and to record the cooling intensity at regular time intervals until no cooling could be sensed in the mouth.

mouth and lips = conditions: 50 mL of 1% solution in alcohol per 1 liter mouthwash (with peppermint oil); 30 mL swished, gargled, spit out
Protocol: All the ingredients are mixed. 30 mL of obtained solution is put in the mouth, swished around, gargled and spit out.

panelist's mouth [3] = conditions: 1.5 mg in 355 mL can of clear lemon/lime soda
Protocol: 1.5 mg of the compound of example 2 is dissolved in a 355 mL (12 fl oz.) can of clear lemon/lime soda.

panelist's mouth [4] = conditions: 2.500 g of 2% solution in propylene glycol in 97 g opaque toothgel (with peppermint oil); teeth brushed, mouth rinsed
Excerpt: The chemicals are mixed in the toothgel, a piece of toothgel is put on a toothbrush and a panelist's teeth are brushed. The mouth is rinsed with water and the water is spit out.

Structure (SMILES) | Isointensive concentration [1] | Isointensive concentration ([1]; listed as m = 0, 4) | Longevity (time until no cooling could be sensed in the mouth) [2] | Concentration with cooling intensity similar or slightly higher than menthol at 2 ppm [2] | Cooling sensation in mouthwash (mouth and lips) | After-taste in beverage (panelist's mouth [3]) | Cooling sensation in beverage (panelist's mouth [3]) | Isointensive concentration ([1]; listed as m = 2, 2 or 6) | Cooling sensation in toothgel (panelist's mouth [4])
CC1CCC(C(C)C)C(C(=O)Nc2ccncc2)C1 (centres unmarked) [Example 1, N-(4-pyridinyl) p-menthanecarboxamide] | 0.67 ppm | 0.5 ppm | 50 min | 0.5 ppm | icy-cool sensation is felt in every area of the mouth as well as lips |  |  |  | 
CC(C)[C@@H]1CC[C@@H](C)C[C@H]1C(=O)NCCc1ccccn1 [Example 2, (1R,2S,5R)-2-isopropyl-5-methyl-N-(2-(pyridin-2-yl)ethyl)cyclohexanecarboxamide] | 0.05 ppm |  | 60 min | 0.02 ppm |  | No unpleasant after-taste | agreeable delayed cooling sensation in the mouth with no throat burning | 0.02 ppm | intense cooling sensation is felt by the panelist in all areas of the mouth
CC(C)C(C)(C(=O)NCCc1ccccn1)C(C)C [Example 3, 2-isopropyl-2,3-dimethyl-N-(2-(pyridin-2-yl)ethyl)butanamide] |  |  |  | 0.4 ppm |  |  |  |  | 
CCNC(=O)C1CC(C)CCC1C(C)C (centres unmarked) [N-ethyl p-menthanecarboxamide (WS-3), N-ethyl p-menthanecarboxamide, reference compound] |  |  | 57 min | 1.5 ppm |  |  |  |  | 
CC(C)[C@@H]1CC[C@@H](C)C[C@H]1O [l-Menthol, reference compound] |  |  | 35 min | 2.0 ppm |  |  |  |  | 
